Assay results published in PMC12951562, “SH2scan: Mapping SH2 Domain-Ligand Binding Selectivity for Inhibitors and Degraders” (Journal of Medicinal Chemistry, 2026).

What was measured:
Type in all cases: binding
PIK3R1(SH2dom.N-term.) = molecular target: T1, PIK3R1(SH2dom.N-term.) (Homo sapiens, UniProt P27986); experiment: biochemical; conditions: primary screen, 10 μM; read-out: percent of DMSO vehicle control
T1 construct: SH2dom.N-term. denotes SH2 domain closest to N-terminus of protein; made in house; host or cells: HEK293 (transient transfection, unpurified extract)

STAT4 = molecular target: T2, STAT4 (Homo sapiens, UniProt Q14765); experiment: biochemical; conditions: for percent of DMSO vehicle control: primary screen, 10 μM
T2 construct: made in house; host or cells: HEK293 (transient transfection), unpurified extract
T2 sequence (Q14765 1-748): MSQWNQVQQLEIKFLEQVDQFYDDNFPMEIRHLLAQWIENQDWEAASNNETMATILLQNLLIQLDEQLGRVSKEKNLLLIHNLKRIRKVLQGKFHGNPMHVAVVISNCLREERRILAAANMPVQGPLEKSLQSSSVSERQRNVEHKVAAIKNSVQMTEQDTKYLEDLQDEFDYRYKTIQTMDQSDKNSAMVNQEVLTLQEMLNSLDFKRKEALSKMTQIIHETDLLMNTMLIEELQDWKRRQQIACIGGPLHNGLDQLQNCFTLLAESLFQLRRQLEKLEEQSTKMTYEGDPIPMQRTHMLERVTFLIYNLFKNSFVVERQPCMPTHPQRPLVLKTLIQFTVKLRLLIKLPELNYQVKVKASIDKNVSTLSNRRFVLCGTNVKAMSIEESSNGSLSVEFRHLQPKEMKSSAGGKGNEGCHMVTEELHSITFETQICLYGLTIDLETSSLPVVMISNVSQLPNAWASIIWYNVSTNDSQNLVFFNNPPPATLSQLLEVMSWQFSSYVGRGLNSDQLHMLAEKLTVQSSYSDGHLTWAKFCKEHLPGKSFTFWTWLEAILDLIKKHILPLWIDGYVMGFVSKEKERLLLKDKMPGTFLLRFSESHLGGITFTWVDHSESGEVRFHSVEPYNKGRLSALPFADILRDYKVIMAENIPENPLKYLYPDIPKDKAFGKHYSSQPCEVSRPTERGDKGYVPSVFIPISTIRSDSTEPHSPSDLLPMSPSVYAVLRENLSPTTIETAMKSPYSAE

HSH2D = molecular target: T3, HSH2D (Homo sapiens, UniProt Q96JZ2); experiment: biochemical; conditions: for remaining activity at 10 µM: primary screen, read-out: percent of DMSO vehicle control
T3 construct: the DNA-tagged SH2 domain concentrations used in this study were <0.1 nM; made in house; host or cells: HEK293 (transient transfection, unpurified extract)
T3 sequence (Q96JZ2 34-125 limits assumed): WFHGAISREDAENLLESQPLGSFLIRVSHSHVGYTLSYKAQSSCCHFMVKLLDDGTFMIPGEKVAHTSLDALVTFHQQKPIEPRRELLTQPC

BRK = molecular target: T4, BRK (Homo sapiens, UniProt Q13882); experiment: biochemical; conditions: for KD: dose-response; for remaining activity at 10 µM: primary screen, read-out: percent of DMSO vehicle control
T4 construct: the DNA-tagged SH2 domain concentrations used in this study were <0.1 nM; made in house; host or cells: HEK293 (transient transfection; unpurified extract)

[1] = molecular target: T5, STAT3(S614R)-nonphosphorylated (Homo sapiens, UniProt P40763, S614R); experiment: biochemical; conditions: for remaining activity at 10 µM: primary screen, read-out: percent of DMSO vehicle control
T5 construct: made in house; host or cells: HEK293 (transient transfection), unpurified extract, dephosphorylated by endogenous phosphatases

[2] = molecular target: T6, STAT3(D661Y)-nonphosphorylated (Homo sapiens, UniProt P40763, D661Y); experiment: biochemical; conditions: for remaining activity at 10 µM: primary screen, read-out: percent of DMSO vehicle control
T6 construct: made in house; host or cells: HEK293 (transient transfection), unpurified extract, dephosphorylated by endogenous phosphatases

CISH = molecular target: T7, CISH (Homo sapiens, UniProt Q9NSE2); experiment: biochemical; conditions: for Kd: dose-response, read-out: KD; for remaining activity at 10 µM: primary screen, read-out: percent of DMSO vehicle control
T7 construct: the DNA-tagged SH2 domain concentrations used in this study were <0.1 nM; made in house; host or cells: HEK293 (transient transfection; unpurified extract)
T7 sequence (Q9NSE2 82-163 limits assumed): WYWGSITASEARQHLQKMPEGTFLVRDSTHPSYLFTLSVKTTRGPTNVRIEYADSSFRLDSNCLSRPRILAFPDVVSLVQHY

SYK(SH2dom1.dom2.) = molecular target: T8, SYK(SH2dom1.dom2.) (Homo sapiens, UniProt P43405); conditions: primary screen, 10 μM
T8 construct: the SH2 domains for these targets are expressed in tandem constructs; made in house; host or cells: HEK293 (transient transfection), unpurified extract

STAT5B(N642H) = molecular target: T9, STAT5B(N642H) (Homo sapiens, UniProt P51692, N642H); experiment: biochemical; conditions: for remaining activity at 10 µM: primary screen, read-out: percent of DMSO vehicle control
T9 construct: made in house; host or cells: HEK293 (transient transfection), unpurified extract
T9 sequence (P51692 1-787 N642H): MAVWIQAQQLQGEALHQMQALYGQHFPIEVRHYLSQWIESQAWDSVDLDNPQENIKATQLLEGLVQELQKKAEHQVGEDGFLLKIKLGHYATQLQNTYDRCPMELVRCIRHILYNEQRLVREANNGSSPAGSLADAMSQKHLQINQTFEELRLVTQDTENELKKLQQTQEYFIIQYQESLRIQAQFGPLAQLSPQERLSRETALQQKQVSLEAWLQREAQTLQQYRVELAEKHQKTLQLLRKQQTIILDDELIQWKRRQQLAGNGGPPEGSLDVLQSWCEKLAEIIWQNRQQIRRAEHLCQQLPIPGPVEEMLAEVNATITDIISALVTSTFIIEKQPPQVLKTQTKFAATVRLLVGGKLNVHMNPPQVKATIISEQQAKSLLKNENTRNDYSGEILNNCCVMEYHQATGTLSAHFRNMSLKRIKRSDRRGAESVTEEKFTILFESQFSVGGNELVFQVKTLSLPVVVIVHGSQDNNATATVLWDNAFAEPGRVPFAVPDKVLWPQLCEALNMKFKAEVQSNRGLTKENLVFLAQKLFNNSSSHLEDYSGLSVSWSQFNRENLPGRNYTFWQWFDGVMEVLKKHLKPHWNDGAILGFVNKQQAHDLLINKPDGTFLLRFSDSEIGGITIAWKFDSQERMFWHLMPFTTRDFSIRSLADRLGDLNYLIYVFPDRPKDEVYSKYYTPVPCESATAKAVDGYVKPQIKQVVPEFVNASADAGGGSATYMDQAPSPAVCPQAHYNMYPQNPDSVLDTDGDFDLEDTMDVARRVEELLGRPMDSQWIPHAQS

SH2D1A = molecular target: T10, SH2D1A (Homo sapiens, UniProt O60880); experiment: biochemical; conditions: primary screen, 10 μM; read-out: percent of DMSO vehicle control
T10 construct: made in house; host or cells: HEK293 (transient transfection), unpurified extract
T10 sequence (O60880 1-128): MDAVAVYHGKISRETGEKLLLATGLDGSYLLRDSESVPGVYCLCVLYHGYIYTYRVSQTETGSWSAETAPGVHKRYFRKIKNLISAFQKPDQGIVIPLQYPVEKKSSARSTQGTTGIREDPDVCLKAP

PTPN11(SH2dom.C-term.) = molecular target: T11, PTPN11(SH2dom.C-term.) (Homo sapiens, UniProt Q06124); experiment: biochemical; conditions: primary screen, 10 μM
T11 construct: SH2dom.C-term. denotes SH2 domain closest to C-terminus of protein; made in house; host or cells: HEK293 (transient transfection, unpurified extract)
T11 sequence (Q06124 112-216 limits assumed): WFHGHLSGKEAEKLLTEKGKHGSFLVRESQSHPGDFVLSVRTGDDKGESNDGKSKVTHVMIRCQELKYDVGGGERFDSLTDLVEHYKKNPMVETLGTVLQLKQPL

Question: `CC(C)(C)[C@H](NC(=O)/C=C/c1ccc(OP(=O)(O)O)cc1)C(=O)N1CCC[C@H]1C(=O)N(c1ccccc1)c1ccc(I)cc1` [STAT6-IN-3] was tested. Which remaining activity at 10 µM (PIK3R1(SH2dom.N-term.)) did it give?
Answer: The remaining activity at 10 µM was 85.6 ± 12.9%.

Question: What about the Kd (STAT4; dose-response, read-out: KD) of the same compound?
Answer: The Kd was 0.52 ± 0.27 µM.

Question: And the “percent of DMSO vehicle control” value (STAT4)?
Answer: The value was 0.2±0.3%.

Question: And the Kd (HSH2D; dose-response, read-out: KD)?
Answer: Its Kd is 7.6 ± 1.6 µM.

Question: And the remaining activity at 10 µM (HSH2D)?
Answer: The remaining activity at 10 µM was 19.6 ± 29.7%.

Question: And the KD (BRK)?
Answer: Its KD is “No Hit”.

Question: What about the remaining activity at 10 µM (BRK) of the same compound?
Answer: The remaining activity at 10 µM was 4.1 ± 47.5%.

Question: What about the Kd ([1]; dose-response, read-out: KD) of the same compound?
Answer: Its Kd is 0.14 ± 0.071 µM.

Question: What about the remaining activity at 10 µM [1] of the same compound?
Answer: Its remaining activity at 10 µM is 0.1 ± 0.1%.

Question: And the Kd ([2]; dose-response, read-out: KD)?
Answer: Its Kd is 1.9 ± 2.3 µM.

Question: And the remaining activity at 10 µM [2]?
Answer: The remaining activity at 10 µM was 4.4 ± 3.7%.

Question: What about the Kd (CISH) of the same compound?
Answer: Its Kd is 4.2 ± 1.1 µM.

Question: And the remaining activity at 10 µM (CISH)?
Answer: Its remaining activity at 10 µM is 26.8 ± 11.8%.

Question: And the “percent of DMSO vehicle control” value (SYK(SH2dom1.dom2.))?
Answer: The value was 65.2±43.9%.

Question: What about the Kd (STAT5B(N642H); dose-response, read-out: KD) of the same compound?
Answer: The Kd was 0.036 ± 0.027 µM.

Question: And the remaining activity at 10 µM (STAT5B(N642H))?
Answer: The remaining activity at 10 µM was 1.3 ± 7.7%.

Question: What about the remaining activity at 10 µM (SH2D1A) of the same compound?
Answer: Its remaining activity at 10 µM is 68.5 ± 43.7%.

Question: And the “percent of DMSO vehicle control” value (PTPN11(SH2dom.C-term.))?
Answer: Its value is 37.9±11.0%.

Question: For `O=C(COc1ccc2cc(C(=O)Nc3ccccc3)ccc2c1)NCc1ccc(OP(=O)(O)O)c(OP(=O)(O)O)c1` [Stafib-1], which remaining activity at 10 µM (PIK3R1(SH2dom.N-term.)) is on record?
Answer: The remaining activity at 10 µM was 88.8 ± 24.3%.

Question: What about the “percent of DMSO vehicle control” value (STAT4) of the same compound?
Answer: Its value is 57.6±15.3%.

Question: And the KD (HSH2D; dose-response)?
Answer: Its KD is “No Hit”.

Question: What about the remaining activity at 10 µM (HSH2D) of the same compound?
Answer: The remaining activity at 10 µM was 27.1%.

Question: What about the KD (BRK) of the same compound?
Answer: Its KD is “No Hit”.

Question: What about the remaining activity at 10 µM (BRK) of the same compound?
Answer: Its remaining activity at 10 µM is 5.4 ± 60.2%.

Question: And the remaining activity at 10 µM [1]?
Answer: Its remaining activity at 10 µM is 87.4 ± 4.6%.

Question: What about the remaining activity at 10 µM [2] of the same compound?
Answer: The remaining activity at 10 µM was 157%.

Question: What about the Kd (CISH) of the same compound?
Answer: Its Kd is 3.9 ± 8.5 µM.

Question: What about the remaining activity at 10 µM (CISH) of the same compound?
Answer: The remaining activity at 10 µM was 1.7 ± 2.3%.

Question: What about the “percent of DMSO vehicle control” value (SYK(SH2dom1.dom2.)) of the same compound?
Answer: The value was 66.1±28.1%.

Question: And the remaining activity at 10 µM (STAT5B(N642H))?
Answer: The remaining activity at 10 µM was 12.5 ± 13.5%.

Question: What about the remaining activity at 10 µM (SH2D1A) of the same compound?
Answer: Its remaining activity at 10 µM is 87.8 ± 37.4%.

Question: What about the “percent of DMSO vehicle control” value (PTPN11(SH2dom.C-term.)) of the same compound?
Answer: Its value is 99.1±12.9%.
